{"source": "patent US20100197704A1", "about": "“PHARMACEUTICAL COMPOSITIONS AND METHOD FOR TREATING ACUTE MANIA” (priority 2007, published 2010)", "origin": "cited, not measured here", "conditions_in_all_cases": "cited from earlier work", "key": {"[1]": {"molecular_target": "histamine H1 (Homo sapiens, UniProt P35367)", "sequence (P35367 whole entry)": "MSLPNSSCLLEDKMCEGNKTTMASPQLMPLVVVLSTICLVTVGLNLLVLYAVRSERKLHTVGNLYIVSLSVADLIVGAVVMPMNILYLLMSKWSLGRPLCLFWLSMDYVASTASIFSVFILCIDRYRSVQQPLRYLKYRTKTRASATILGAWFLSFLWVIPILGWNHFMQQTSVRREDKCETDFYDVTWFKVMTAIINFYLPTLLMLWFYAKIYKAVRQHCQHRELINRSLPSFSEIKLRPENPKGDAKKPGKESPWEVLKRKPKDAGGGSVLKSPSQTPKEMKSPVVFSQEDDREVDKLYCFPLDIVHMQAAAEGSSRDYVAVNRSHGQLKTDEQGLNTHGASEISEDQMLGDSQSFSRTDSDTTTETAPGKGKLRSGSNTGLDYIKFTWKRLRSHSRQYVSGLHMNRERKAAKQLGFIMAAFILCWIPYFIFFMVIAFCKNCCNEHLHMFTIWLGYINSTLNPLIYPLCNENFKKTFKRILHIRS"}, "[2]": {"molecular_target": "T1, 5-HT2C (Homo sapiens, UniProt P28335)", "T1 sequence (P28335 33-458)": "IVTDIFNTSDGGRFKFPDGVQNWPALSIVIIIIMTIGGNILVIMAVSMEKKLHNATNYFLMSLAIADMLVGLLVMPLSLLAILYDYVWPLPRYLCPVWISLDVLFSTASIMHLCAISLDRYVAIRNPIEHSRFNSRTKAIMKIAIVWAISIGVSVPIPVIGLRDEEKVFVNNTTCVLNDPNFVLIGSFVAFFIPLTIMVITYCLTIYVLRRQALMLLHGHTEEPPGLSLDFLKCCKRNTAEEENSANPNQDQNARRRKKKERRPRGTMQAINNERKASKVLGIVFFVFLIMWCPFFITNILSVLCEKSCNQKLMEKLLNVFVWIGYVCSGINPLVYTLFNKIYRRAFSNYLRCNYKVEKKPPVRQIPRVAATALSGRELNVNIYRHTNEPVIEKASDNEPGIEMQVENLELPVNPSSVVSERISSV"}, "[3]": {"molecular_target": "presynaptic D2 receptors (Homo sapiens, UniProt P14416)", "sequence (P14416 whole entry)": "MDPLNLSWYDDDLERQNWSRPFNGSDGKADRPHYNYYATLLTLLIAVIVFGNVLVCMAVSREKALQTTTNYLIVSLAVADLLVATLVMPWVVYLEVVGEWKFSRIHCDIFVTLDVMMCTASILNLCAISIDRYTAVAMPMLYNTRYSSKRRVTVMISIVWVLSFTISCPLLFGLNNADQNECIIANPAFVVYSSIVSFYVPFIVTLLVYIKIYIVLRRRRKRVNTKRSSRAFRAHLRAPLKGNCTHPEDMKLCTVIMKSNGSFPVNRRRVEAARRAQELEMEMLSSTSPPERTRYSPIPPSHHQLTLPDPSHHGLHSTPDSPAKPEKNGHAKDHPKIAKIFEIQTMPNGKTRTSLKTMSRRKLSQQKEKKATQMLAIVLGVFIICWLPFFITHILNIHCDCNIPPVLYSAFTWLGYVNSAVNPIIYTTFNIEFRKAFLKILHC"}, "[4]": {"molecular_target": "T2, serotonin 5-HT1A receptors (Homo sapiens, UniProt P08908)", "T2 sequence (P08908 1-422)": "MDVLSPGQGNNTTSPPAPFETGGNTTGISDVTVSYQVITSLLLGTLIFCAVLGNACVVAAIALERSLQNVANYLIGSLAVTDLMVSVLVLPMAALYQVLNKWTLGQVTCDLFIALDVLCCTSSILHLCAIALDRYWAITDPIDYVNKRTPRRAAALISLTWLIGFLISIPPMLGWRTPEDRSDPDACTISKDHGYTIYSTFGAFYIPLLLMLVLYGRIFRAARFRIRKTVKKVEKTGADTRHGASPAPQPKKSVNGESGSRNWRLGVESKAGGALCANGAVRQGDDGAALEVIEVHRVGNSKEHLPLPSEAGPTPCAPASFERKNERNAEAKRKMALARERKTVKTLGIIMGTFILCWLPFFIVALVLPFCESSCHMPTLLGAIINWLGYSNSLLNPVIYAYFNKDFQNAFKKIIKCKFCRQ"}, "[5]": {"system": "adrenergic receptor sites"}, "[6]": {"molecular_target": "T2, serotonin 5-HT1A receptors", "remark": "listed apart in the source"}}}
{"smiles": "CN(C)C(=O)NC1CCC(CCN2CCN(c3cccc(Cl)c3Cl)CC2)CC1.Cl", "note": "(stereo not drawn) [trans-4-{2-[4-(2,3-dichlorophenyl)-piperazin-1-yl]-ethyl}-N,N-dimethylcarbamoyl-cyclohexylamine hydrochloride]", "values": [{"measurement": "potency at histamine H1 receptor site", "setting": "[1]", "value": "low potency"}, {"measurement": "potency at 5-HT2C receptor site", "setting": "[2]", "value": "low potency"}, {"measurement": "activity on biosynthesis (and release) modulating presynaptic D2 receptors", "setting": "[3]; depending on the functional status of the particular dopaminergic system", "value": "both (partial) agonist and antagonist activity"}, {"measurement": "in vivo mode of action on the dopamine system", "setting": "[3]; in vivo, preferential dopaminergic actions in the limbic regions", "value": "dopamine system stabilizer"}, {"measurement": "affinity for serotonin 5-HT1A receptors", "setting": "[4]", "value": "considerable affinity"}, {"measurement": "potency at adrenergic receptor sites", "setting": "[5]", "value": "low potency"}, {"measurement": "functional activity at serotonin 5-HT1A receptors", "setting": "[6]", "value": "partial agonist"}]}
